According to patent publication US20240408065A1, “CYANO COMPOUND, AND PREPARATION METHOD THEREFOR AND USE THEREOF” (SHANGHAI INSTITUTE OF MATERIA MEDICA, CHINESE ACADEMY OF …, priority 2021, published 2024):
Several values for one entry are separate records, joined by “and”; a condition that tells them apart may be missing. Equal values may be shown once.

Columns and labels:
SARS-CoV-2 3CLpro = biological target: T1, SARS-CoV-2 3CLpro (Severe acute respiratory syndrome coronavirus 2, UniProt P0DTD1); test: biochemical; conditions: protease 30 nM, substrate 20 μM
T1 construct: The SARS-CoV-2 3CL^pro protease and different concentrations of the compounds were added to a 96-well plate

[1] = tested on: SARS-CoV-2 Omicron strain (B.1.1.529); test: microbe, parasite or virus in culture; conditions: Severe acute respiratory syndrome coronavirus 2, Vero C1008
SARS-CoV-2 delta strain = conditions: mouse, in vivo
[2] = cynomolgus monkey, in vivo
[3] = tested on: SARS-CoV-2 B.1.351 strain; test: microbe, parasite or virus in culture; conditions: Severe acute respiratory syndrome coronavirus 2, Vero C1008, 24 h
[4] = tested on: 47 safety-related targets; conditions: read-out: ECo on 47 safety-related targets
Text: For the 78 tests related to the 47 safe targets, the experimental methods used include: cAMP assay, calcium flux assay, hormone nuclear receptor assay, kinase binding assay, enzyme activity assay, neurotransmitter transporter assay, ion channel assay, and transporter assay.

in vitro = conditions: African green monkey
Experimental: In the cytotoxicity test, Vero E6 cells were digested and placed in a culture medium (90% DMEM, 10% fetal bovine serum), inoculated into a 96-well plate at 20000 cells per well, and cultured overnight. The compound to be tested was dissolved in DMSO to prepare a 40 mM stock solution, and further serially diluted with a culture medium or a culture medium containing 0.5 μM Pgp inhibitor to obtain the concentration required for the test.

SMILES | IC50 (SARS-CoV-2 3CLpro) [µM] | further results
CC(C)(C)OC(=O)N[C@H](C(=O)N1CC2(C[C@H]1C(=O)N[C@H](C#N)C[C@@H]1CCNC1=O)SCCS2)C(C)(C)C [Compound 1] | < 0.1 | –
CC(C)(C)[C@H](NC(=O)C(F)(F)F)C(=O)N1CC2(C[C@H]1C(=O)N[C@H](C#N)C[C@@H]1CCNC1=O)SCCS2 [Compound 2] | – | IC50 [1]: 0.12 µM; Viral load, brain tissue, Day 2 (SARS-CoV-2 delta strain): 0.77 ± 0.20 log10 copies/mg and 1.04 ± 0.24 log10 copies/mg; Viral load, lung tissue, Day 4 (SARS-CoV-2 delta strain): 7.88 ± 0.74 log10 copies/g and 7.48 ± 0.63 log10 copies/g; body weight of the mice (SARS-CoV-2 delta strain): did not decrease significantly; decrease of virus copy number in the lung compared with the model group (SARS-CoV-2 delta strain): 2.4 log 10 copies/g; decrease of virus titer in the lung compared with the model group (SARS-CoV-2 delta strain): more than 3 log 10 PFU/g; effect on virus titer in the lung (SARS-CoV-2 delta strain): sustained inhibitory effect; histopathological analysis of the lung (SARS-CoV-2 delta strain): significantly improved lung damage; virus titer in the brain (plaque test) (SARS-CoV-2 delta strain): no virus titer was determined; virus titer in the lung (plaque test) (SARS-CoV-2 delta strain): no titer was detected; arrhythmia [2]: no arrhythmia related to the test product; change in the cardiovascular system [2]: no change in the cardiovascular system related to the test product; changes in ECG parameters or blood pressure [2]: no changes in ECG parameters or blood pressure related to the test product; EC50 [3]: 0.73 µM; EC50 [4]: > 100 µM; CC50 (in vitro): > 500 µM
CC(=O)N[C@H](C(=O)N1CC2(C[C@H]1C(=O)N[C@H](C#N)C[C@@H]1CCNC1=O)SCCS2)C(C)(C)C [Compound 3] | < 0.1 | –
CC(C)(C)[C@H](NC(=O)C1CC1)C(=O)N1CC2(C[C@H]1C(=O)N[C@H](C#N)C[C@@H]1CCNC1=O)SCCS2 [Compound 4] | < 0.1 | –
COC(=O)N[C@H](C(=O)N1CC2(C[C@H]1C(=O)N[C@H](C#N)C[C@@H]1CCNC1=O)SCCS2)C(C)(C)C [Compound 6] | 0.1 to 1 | –
CC(C)(C)[C@H](NC(=O)c1ccccc1)C(=O)N1CC2(C[C@H]1C(=O)N[C@H](C#N)C[C@@H]1CCNC1=O)SCCS2 [Compound 8] | 1 to 10 | –
CC(C)(C)[C@H](NC(=O)c1cc(C(F)(F)F)cc(C(F)(F)F)c1)C(=O)N1CC2(C[C@H]1C(=O)N[C@H](C#N)C[C@@H]1CCNC1=O)SCCS2 [Compound 9] | 1 to 10 | –
Cc1cc(C)cc(C(=O)N[C@H](C(=O)N2CC3(C[C@H]2C(=O)N[C@H](C#N)C[C@@H]2CCNC2=O)SCCS3)C(C)(C)C)c1 [Compound 10] | 1 to 10 | –
CC(C)(C)[C@H](NC(=O)CC(F)(F)F)C(=O)N1CC2(C[C@H]1C(=O)N[C@H](C#N)C[C@@H]1CCNC1=O)SCCS2 [Compound 11] | 0.1 to 1 | –
CC(C)(C)[C@H](NC(=O)c1cccnc1)C(=O)N1CC2(C[C@H]1C(=O)N[C@H](C#N)C[C@@H]1CCNC1=O)SCCS2 [Compound 12] | 1 to 10 | –
CC(C)(C)[C@H](NC(=O)C(F)(F)C(F)(F)F)C(=O)N1CC2(C[C@H]1C(=O)N[C@H](C#N)C[C@@H]1CCNC1=O)SCCS2 [Compound 13] | < 0.1 | –
N#C[C@H](C[C@@H]1CCNC1=O)NC(=O)[C@@H]1CC2(CN1C(=O)[C@@H](NC(=O)C(F)(F)F)C1CCCC1)SCCS2 [Compound 14] | < 0.1 | –
CC(C)(C)[C@H](NS(=O)(=O)c1ccccc1)C(=O)N1CC2(C[C@H]1C(=O)N[C@H](C#N)C[C@@H]1CCNC1=O)SCCS2 [Compound 17] | 1 to 10 | –
CC(C)(C)[C@H](NC(=O)C(F)(F)F)C(=O)N1CC2(C[C@H]1C(=O)N[C@H](C#N)C[C@@H]1CCNC1=O)OCCO2 [Compound 18] | < 0.1 | –
CC(C)(C)[C@H](NC(=O)C(F)(F)F)C(=O)N1C[C@H](Sc2ccccc2)C[C@H]1C(=O)N[C@H](C#N)C[C@@H]1CCNC1=O [Compound 19] | 1 to 10 | –
CC(C)(C)[C@H](NC(=O)c1c(F)c(F)c(F)c(F)c1F)C(=O)N1CC2(C[C@H]1C(=O)N[C@H](C#N)C[C@@H]1CCNC1=O)SCCS2 [Compound 20] | 0.1 to 1 | –
N#C[C@H](C[C@@H]1CCNC1=O)NC(=O)[C@@H]1CC2(CN1C(=O)[C@@H](NC(=O)C1(F)CC1)C1CCCC1)SCCS2 [Compound 21] | < 0.1 | –
CC(C)(C)[C@H](NC(=O)C(F)(F)C(F)(F)F)C(=O)N1CC2(C[C@H]1C(=O)N[C@H](C#N)C[C@@H]1CCCNC1=O)SCCS2 [Compound 22] | < 0.1 | –
N#C[C@H](C[C@@H]1CCNC1=O)NC(=O)[C@@H]1CC2(CN1C(=O)[C@@H](NC(=O)C(F)(F)F)C13CC4CC(CC(C4)C1)C3)SCCS2 [Compound 23] | < 0.1 | –
